# According to ChEMBL document CHEMBL3885881, “DrugMatrix”:
# Species on record: Rattus norvegicus
# Assay: DrugMatrix - Regimen: Daily Repeat
# Type: toxicity, organism-based, Sprague-Dawley
# Design: regimen Daily Repeat, gender Male, age 6-8 weeks
# Settings: in vivo, po, 0 mg/kg, route oral GAVAGE, dose level Control, vehicle 100 % WATER; for ABSOLUTE BASOPHIL / ABSOLUTE EOSINOPHIL / ABSOLUTE LYMPHOCYTE / ABSOLUTE MONOCYTE / ABSOLUTE SEGMENTED NEUTROPHIL / BASOPHIL / EOSINOPHIL / ERYTHROCYTE COUNT / HEMATOCRIT / HEMOGLOBIN / LEUKOCYTE COUNT / LYMPHOCYTE / MEAN CORPUSCULAR HEMOGLOBIN / MEAN CORPUSCULAR HEMOGLOBIN CONCENTRATION / MEAN CORPUSCULAR VOLUME / MONOCYTE / NEUTROPHIL / NUCLEATED RED BLOOD CELLS / PLATELET COUNT: tissue Blood; for ALANINE AMINOTRANSFERASE / ALBUMIN / ALKALINE PHOSPHATASE / ASPARTATE AMINOTRANSFERASE / BLOOD UREA NITROGEN / CARBON DIOXIDE / CHLORIDE / CHOLESTEROL / CREATINE PHOSPHOKINASE / CREATININE / GLUCOSE / LACTATE DEHYDROGENASE / LIPASE / PHOSPHORUS / POTASSIUM / SODIUM / TOTAL BILIRUBIN / TOTAL PROTEIN / URIC ACID: tissue Plasma
structure (smiles),measurement,setting,value
Cc1cc(NS(=O)(=O)c2ccc(N)cc2)no1 [SULFAMETHOXAZOLE],ABSOLUTE BASOPHIL,"72 h, time 3 day",0 CELLS/uL
same,ABSOLUTE EOSINOPHIL,"72 h, time 3 day",102 CELLS/uL
same,ABSOLUTE LYMPHOCYTE,"72 h, time 3 day",12758 CELLS/uL
same,ABSOLUTE MONOCYTE,"72 h, time 3 day",197.17 CELLS/uL
same,ABSOLUTE SEGMENTED NEUTROPHIL,"72 h, time 3 day",1259.5 CELLS/uL
same,BASOPHIL,"72 h, time 3 day",0%
same,EOSINOPHIL,"72 h, time 3 day",0.83%
same,ERYTHROCYTE COUNT,"72 h, time 3 day",5.3 x10E6/uL
same,HEMATOCRIT,"72 h, time 3 day",33.47%
same,HEMOGLOBIN,"72 h, time 3 day",13.12 G/DL
same,LEUKOCYTE COUNT,"72 h, time 3 day",14.32 x10E3/uL
same,LYMPHOCYTE,"72 h, time 3 day",89.33%
same,MEAN CORPUSCULAR HEMOGLOBIN,"72 h, time 3 day",24.8 pg
same,MEAN CORPUSCULAR HEMOGLOBIN CONCENTRATION,"72 h, time 3 day",39.18 G/DL
same,MEAN CORPUSCULAR VOLUME,"72 h, time 3 day",63.25 fL
same,MONOCYTE,"72 h, time 3 day",1.33%
same,NEUTROPHIL,"72 h, time 3 day",8.5%
same,NUCLEATED RED BLOOD CELLS,"72 h, time 3 day",0 /100WBC
same,PLATELET COUNT,"72 h, time 3 day",1313.17 x10E3/uL
same,ALANINE AMINOTRANSFERASE,"72 h, time 3 day",52.67 u/L
same,ALBUMIN,"72 h, time 3 day",4.05 G/DL
same,ALKALINE PHOSPHATASE,"72 h, time 3 day",372 u/L
same,ASPARTATE AMINOTRANSFERASE,"72 h, time 3 day",82.83 u/L
same,BLOOD UREA NITROGEN,"72 h, time 3 day",15 mg/dL
same,CARBON DIOXIDE,"72 h, time 3 day",25.67 mmol/L
same,CHLORIDE,"72 h, time 3 day",102.17 MEQ/L
same,CHOLESTEROL,"72 h, time 3 day",68.83 mg/dL
same,CREATINE PHOSPHOKINASE,"72 h, time 3 day",285 u/L
same,CREATININE,"72 h, time 3 day",0.18 mg/dL
same,GLUCOSE,"72 h, time 3 day",149.17 mg/dL
same,LACTATE DEHYDROGENASE,"72 h, time 3 day",263.83 u/L
same,LIPASE,"72 h, time 3 day",10.17 u/L
same,PHOSPHORUS,"72 h, time 3 day",12.58 mg/dL
same,POTASSIUM,"72 h, time 3 day",6.58 MEQ/L
same,SODIUM,"72 h, time 3 day",144.22 MEQ/L
same,TOTAL BILIRUBIN,"72 h, time 3 day",0.22 mg/dL
same,TOTAL PROTEIN,"72 h, time 3 day",5.83 G/DL
same,URIC ACID,"72 h, time 3 day",1.58 mg/dL
same,ABSOLUTE BASOPHIL,"120 h, time 5 day",0 CELLS/uL
same,ABSOLUTE EOSINOPHIL,"120 h, time 5 day",24 CELLS/uL
same,ABSOLUTE LYMPHOCYTE,"120 h, time 5 day",11134.17 CELLS/uL
same,ABSOLUTE MONOCYTE,"120 h, time 5 day",56.33 CELLS/uL
same,ABSOLUTE SEGMENTED NEUTROPHIL,"120 h, time 5 day",1235.5 CELLS/uL
same,BASOPHIL,"120 h, time 5 day",0%
same,EOSINOPHIL,"120 h, time 5 day",0.17%
same,ERYTHROCYTE COUNT,"120 h, time 5 day",5.68 x10E6/uL
same,HEMATOCRIT,"120 h, time 5 day",35.72%
same,HEMOGLOBIN,"120 h, time 5 day",13.93 G/DL
same,LEUKOCYTE COUNT,"120 h, time 5 day",12.45 x10E3/uL
same,LYMPHOCYTE,"120 h, time 5 day",89.5%
same,MEAN CORPUSCULAR HEMOGLOBIN,"120 h, time 5 day",24.63 pg
same,MEAN CORPUSCULAR HEMOGLOBIN CONCENTRATION,"120 h, time 5 day",39.13 G/DL
same,MEAN CORPUSCULAR VOLUME,"120 h, time 5 day",62.97 fL
same,MONOCYTE,"120 h, time 5 day",0.5%
same,NEUTROPHIL,"120 h, time 5 day",9.83%
same,NUCLEATED RED BLOOD CELLS,"120 h, time 5 day",0 /100WBC
same,PLATELET COUNT,"120 h, time 5 day",1204 x10E3/uL
same,ALANINE AMINOTRANSFERASE,"120 h, time 5 day",59.5 u/L
same,ALBUMIN,"120 h, time 5 day",4.38 G/DL
same,ALKALINE PHOSPHATASE,"120 h, time 5 day",415.67 u/L
same,ASPARTATE AMINOTRANSFERASE,"120 h, time 5 day",91.33 u/L
same,BLOOD UREA NITROGEN,"120 h, time 5 day",17 mg/dL
same,CARBON DIOXIDE,"120 h, time 5 day",26.33 mmol/L
same,CHLORIDE,"120 h, time 5 day",104.17 MEQ/L
same,CHOLESTEROL,"120 h, time 5 day",77 mg/dL
same,CREATINE PHOSPHOKINASE,"120 h, time 5 day",249.67 u/L
same,CREATININE,"120 h, time 5 day",0.21 mg/dL
same,GLUCOSE,"120 h, time 5 day",148.33 mg/dL
same,LACTATE DEHYDROGENASE,"120 h, time 5 day",168.5 u/L
same,LIPASE,"120 h, time 5 day",10.17 u/L
same,PHOSPHORUS,"120 h, time 5 day",12.92 mg/dL
same,POTASSIUM,"120 h, time 5 day",7.09 MEQ/L
same,SODIUM,"120 h, time 5 day",148.37 MEQ/L
same,TOTAL BILIRUBIN,"120 h, time 5 day",0.23 mg/dL
same,TOTAL PROTEIN,"120 h, time 5 day",6.3 G/DL
same,URIC ACID,"120 h, time 5 day",1.77 mg/dL
